Source: PubChem BioAssay AID1963976 (Molecular Pharmacology Branch, DTP, NCI, 2024)

Tested on: 435261-313-R-J1-PDC tumor spheroid viability
Test: Anticancer human tumor 435261-313-R-J1-PDC patient-derived colon adenocarcinoma cell line growth inhibition [PI3K]
Conditions: spheroids with HUVEC and MSC; for IC50: curve of first compound; for viability, T/C: stronger effect = lower value; active means viability on the fitted dose curve at most 10% of control; inactive means the rest
Method in brief: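 Multi-cell spheroids combine tumor cells with HUVEC and human MSCs, treated with targeted agents alone or with inavolisib, alpelisib, duvelisib or copanlisib. Concentrations fall in half-log steps from at or near clinical Cmax, or from 10 microM where Cmax is unknown; viability read-out.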
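Further: spheroids exposed to compounds for 7 days.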

CC1(C)CCC(Nc2ncc(C(F)(F)F)c(-c3c[nH]c4c(P(C)(C)=O)c(C#N)ccc34)n2)CN1 (centres undefined) + CC(Nc1ncnc2nc[nH]c12)c1cc2cccc(Cl)c2c(=O)n1-c1ccccc1
1550 nM: IC50 (second compound 1 µM)
1920 nM: IC50 (second compound 0.1 µM)
1470 nM: IC50 (second compound 0.316 µM)
< 31.6 nM: IC50 (second compound 3.16 µM) | IC50 (second compound 10 µM)
active: viability, T/C (second compound 0.0316 µM, first compound 10 µM) 1.46% | viability, T/C (second compound 0.1 µM, first compound 10 µM) 2.25% | viability, T/C (second compound 0.316 µM, first compound 10 µM) 0.98% | viability, T/C (second compound 1 µM, first compound 10 µM) 1.03% | viability, T/C (second compound 3.16 µM, first compound 10 µM) 0.77% | viability, T/C (second compound 10 µM, first compound 10 µM) 1.14%
inactive: viability, T/C (second compound 0.0316 µM, first compound 0.0316 µM) 61.1% | viability, T/C (second compound 0.0316 µM, first compound 0.1 µM) 52.4% | viability, T/C (second compound 0.0316 µM, first compound 0.316 µM) 61.4% | viability, T/C (second compound 0.0316 µM, first compound 1 µM) 61.4% | viability, T/C (second compound 0.0316 µM, first compound 3.16 µM) 48% | viability, T/C (second compound 0.1 µM, first compound 0.0316 µM) 70.5% | viability, T/C (second compound 0.1 µM, first compound 0.1 µM) 60.4% | viability, T/C (second compound 0.1 µM, first compound 0.316 µM) 53.4% | viability, T/C (second compound 0.1 µM, first compound 1 µM) 60.6% | viability, T/C (second compound 0.1 µM, first compound 3.16 µM) 44.4% | viability, T/C (second compound 0.316 µM, first compound 0.0316 µM) 56.9% | viability, T/C (second compound 0.316 µM, first compound 0.1 µM) 57.8% | viability, T/C (second compound 0.316 µM, first compound 0.316 µM) 58.2% | viability, T/C (second compound 0.316 µM, first compound 1 µM) 50.9% | viability, T/C (second compound 0.316 µM, first compound 3.16 µM) 43.5% | viability, T/C (second compound 1 µM, first compound 0.0316 µM) 50.5% | viability, T/C (second compound 1 µM, first compound 0.1 µM) 52.1% | viability, T/C (second compound 1 µM, first compound 0.316 µM) 57.2% | viability, T/C (second compound 1 µM, first compound 1 µM) 57% | viability, T/C (second compound 1 µM, first compound 3.16 µM) 44.3% | viability, T/C (second compound 3.16 µM, first compound 0.0316 µM) 37.3% | viability, T/C (second compound 3.16 µM, first compound 0.1 µM) 42.8% | viability, T/C (second compound 3.16 µM, first compound 0.316 µM) 44% | viability, T/C (second compound 3.16 µM, first compound 1 µM) 47.8% | viability, T/C (second compound 3.16 µM, first compound 3.16 µM) 36.9% | viability, T/C (second compound 10 µM, first compound 0.0316 µM) 33.6% | viability, T/C (second compound 10 µM, first compound 0.1 µM) 27.4% | viability, T/C (second compound 10 µM, first compound 0.316 µM) 27.7% | viability, T/C (second compound 10 µM, first compound 1 µM) 31.1% | viability, T/C (second compound 10 µM, first compound 3.16 µM) 22.3%
2550 nM: IC50 (second compound 0.0316 µM)

Cn1cnc2c(F)c(Nc3ccc(Br)cc3Cl)c(C(=O)NOCCO)cc21 + COc1c(OCCCN2CCOCC2)ccc2c3n(c(=NC(=O)c4cnc(N)nc4)nc12)CCN3
inactive: viability, T/C (second compound 0.00316 µM, first compound 0.00949 µM) 29.7% | viability, T/C (second compound 0.00316 µM, first compound 0.03 µM) 25.4% | viability, T/C (second compound 0.00316 µM, first compound 0.0949 µM) 20.5% | viability, T/C (second compound 0.00316 µM, first compound 0.3 µM) 19% | viability, T/C (second compound 0.00316 µM, first compound 0.949 µM) 19.1% | viability, T/C (second compound 0.00316 µM, first compound 3 µM) 14.2% | viability, T/C (second compound 0.01 µM, first compound 0.00949 µM) 24.2% | viability, T/C (second compound 0.01 µM, first compound 0.03 µM) 20.6% | viability, T/C (second compound 0.01 µM, first compound 0.0949 µM) 22.4% | viability, T/C (second compound 0.01 µM, first compound 0.3 µM) 17.8% | viability, T/C (second compound 0.01 µM, first compound 0.949 µM) 16.4% | viability, T/C (second compound 0.01 µM, first compound 3 µM) 9.17% | viability, T/C (second compound 0.0316 µM, first compound 0.00949 µM) 30.9% | viability, T/C (second compound 0.0316 µM, first compound 0.03 µM) 16.9% | viability, T/C (second compound 0.0316 µM, first compound 0.0949 µM) 14.4% | viability, T/C (second compound 0.0316 µM, first compound 0.3 µM) 11.1%
active: viability, T/C (second compound 0.0316 µM, first compound 0.949 µM) 11.4% | viability, T/C (second compound 0.0316 µM, first compound 3 µM) 3.71% | viability, T/C (second compound 0.1 µM, first compound 0.00949 µM) 8.18% | viability, T/C (second compound 0.1 µM, first compound 0.03 µM) 7.27% | viability, T/C (second compound 0.1 µM, first compound 0.0949 µM) 7.24% | viability, T/C (second compound 0.1 µM, first compound 0.3 µM) 6.07% | viability, T/C (second compound 0.1 µM, first compound 0.949 µM) 3.14% | viability, T/C (second compound 0.1 µM, first compound 3 µM) 0.52% | viability, T/C (second compound 0.316 µM, first compound 0.00949 µM) 2.98% | viability, T/C (second compound 0.316 µM, first compound 0.03 µM) 2.65% | viability, T/C (second compound 0.316 µM, first compound 0.0949 µM) 1.65% | viability, T/C (second compound 0.316 µM, first compound 0.3 µM) 0.71% | viability, T/C (second compound 0.316 µM, first compound 0.949 µM) 0.32% | viability, T/C (second compound 0.316 µM, first compound 3 µM) 0.75% | viability, T/C (second compound 1 µM, first compound 0.00949 µM) 0.94% | viability, T/C (second compound 1 µM, first compound 0.03 µM) 0.62% | viability, T/C (second compound 1 µM, first compound 0.0949 µM) 0.53% | viability, T/C (second compound 1 µM, first compound 0.3 µM) 0.36% | viability, T/C (second compound 1 µM, first compound 0.949 µM) 0.26% | viability, T/C (second compound 1 µM, first compound 3 µM) 0.49%
< 9.49 nM: IC50 (second compound 0.00316 µM) | IC50 (second compound 0.01 µM) | IC50 (second compound 0.0316 µM) | IC50 (second compound 0.1 µM) | IC50 (second compound 0.316 µM) | IC50 (second compound 1 µM)
